The test system of test [1] is LN229HRE-luc/lacZ cells (VEGF HRE, HIF-1 target). Kind of test: Inhibition of hypoxia-inducible gene expression driven by HRE-reporter construct (firefly luciferase) in glioma cells. It counts as cell-based. Conditions: Homo sapiens, Glioma cell; firefly luciferase activity in LN229HRE-luc/LacZ cells, 1 hour pretreatment under normoxia, then hypoxia (1% O2); from dose-response curves. As for the experimental part: Inhibition of Hypoxia-Inducible Gene Expression Driven by Exogenous HRE-Reporter Constructs in Glioma Cells
LN229HRE-luc/lacZ cells were generated by stably transfecting human LN229 glioma cells with a bidirectional reporter construct (pBIGL-V6R) in which the firefly luciferase and LacZ reporter genes are under the control of 6 head to tail tandem copies of the VEGF HRE (hypoxia-responsive element—endogenous HIF-1 target gene) in rightward orientation (clone LN229V6R#18; Hygro selection […]) as reported in Yin et al. Clinical Cancer Research, 2012, 1-11.
Cells were pretreated with different doses of test compounds or 1% DMSO (final concentration in media) vehicle control for 1 hour under normoxia (21% O2); then incubation continued under normoxia or hypoxia (1% O2) using a hypoxia incubator (Thermo Forma model 3130). Firefly luciferase activities in lysates of LN229HRE-luc/LacZ cells were measured with a Dual-Luciferase Reporter Assay System (Promega) in a 20/20 n Luminometer (Promega). The IC50 (μM) value for each individual compound was established from the dose-response curves.

The test system of the next test is mitochondrial complex I. Conditions: cited from earlier work.
The test system of the next test is HIF-1α. Conditions: cited from earlier work.
For a further test, the system named is H460 xenograft. Conditions: H460 xenograft model; cited from earlier work.
Test [2] has as its target mitochondrial Complex I (NADH:ubiquinone oxidoreductase). Kind of test: MitoCheck Complex I activity assay (Cayman Chemicals #700930). It counts as biochemical. An excerpt:
Complex I (NADH:ubiquinone oxidoreductase or NADH dehydrogenase (ubiquinone)) is a complex of enzymes of the respiratory chains that catalyzes the transfer of electrons from NADH to coenzyme Q10 (CoQ10) located in the inner mitochondrial membrane. […] Cancer Medicine, 2013, 2(5): 611-624. […] Interference with mitochondrial function to reduce hypoxia-induced HIF-1 activity in tumors is indicated as a therapeutic approach to overcome chemo- and radiotherapy resistance of hypoxic tumors. Helbig et al. report BAY 87-2243 improves local tumor control after fractionated irradiation in a schedule-dependent manner in head and neck human xenografts. Radiation Oncology 2014, 9:207. Santidrian et al. report mitochondrial complex I activity and NAD+/NADH balance regulate breast cancer progression. J Clin Invest, 2013, 123(3):1068-81. See also Ellinghaus et al., Cancer Med, 2013, 2(5):611-624. Chang et al., Clin Cancer Res, 2015, 21(2):335-46; Fulda et al., Antioxid Redox Signal, 2011, 15:2937-2949; Wenner, J Cell Physiol, 2012, 227:450-456; Fulda et al., Nat Rev Drug Discov, 2010, 9:447-464.
It has been discovered that certain HIF inhibitors disclosed herein are also mitochondrial inhibitors. […] KCN1 induced acidification of media may be due to the consequence of its mitochondrial inhibiting activity. […]

The test system of another test is cell culture media. Kind of test: Acidification of cell culture media (lactate production). Conditions: due to increased lactate production. The test is classed as cell-based. An excerpt:
It has been discovered that certain HIF inhibitors disclosed herein are also mitochondrial inhibitors. […] KCN1 induced acidification of media may be due to the consequence of its mitochondrial inhibiting activity. Inhibiting the mitochondrial complex I interferes with the normal functions of the electron transport chain. This in effect can damage DNA and specific components of the mitochondria which leads to cell death through the generation of reactive oxygen species.

A further test relates to LN229 cells. Kind of test: Toxicity to LN229 cells in the presence of galactose. It counts as cell-based, human. The text has this:
To be metabolized, galactose has to be converted into glucose in an energy consuming process that cannot be balanced by glycolytic metabolism. […] KCN1 is toxic to LN229 cells in the presence of galactose. […] Thus, in certain embodiments, the disclosure contemplates administering compounds disclosed herein in combination with a restricted or low glucose diet optionally in combination with galactose.

Consider 8 compounds from patent US10772858B2, “Benzhydrol derivatives for the management of conditions related to hypoxia inducible factors” (GEORGIA STATE UNIVERSITY RESEARCH FOUNDATION, priority 2015, dated 2020).

A value given as a limit tells only on which side of the number the result lay.

As to `COc1ccc(C(=O)c2ccc(C[C@H]3CCOC3)cc2)cc1OC` [36c], in test [1], the IC50 was above 5 µM.
Regarding `COc1ccc(C(=O)c2ccc(N3CCOCC3)cc2)cc1OC` [36d], in test [1], the IC50 was above 5 µM.
Consider `COc1ccc(C(=O)c2ccc3c(c2)C=CC(C)(C)O3)cc1OC` [36e], for which the half-inhibitory concentration (IC50) in test [1] was above 5 µM.
As for `COc1ccc(C(=O)c2cccc(COC3CCN(C(=O)OC(C)(C)C)CC3)c2)cc1OC` [36f], the IC50 in test [1] is above 5 µM.
With `COc1ccc(C(=O)c2ccc(COC3CCN(C(=O)OC(C)(C)C)CC3)cc2)cc1OC` [36g], the concentration for half-maximal inhibition (IC50) in test [1] was determined as 4.5 µM.
On the same count and under the same terms, the figure for `COc1ccc(C(=O)c2ccc3c(n2)C=CC(C)(C)O3)cc1OC` [36h] is above 5 µM.
On to `Cc1cc(-c2nc(-c3ccc(OC(F)(F)F)cc3)no2)nn1Cc1ccnc(N2CCN(C3CC3)CC2)c1` [BAY 87-2243], for which the “mitochondrial complex I activity inhibition” value in the test with mitochondrial complex I is “inhibits mitochondrial complex I activity”. In addition, the HIF-1α inhibition entry in the test with HIF-1α was “inhibits HIF-1α”. Also, the “antitumor activity in vivo” value in the test on H460 xenograft is on record as “Antitumor activity of BAY 87-2243 in vivo was demonstrated”.
As for `COc1ccc(S(=O)(=O)N(Cc2ccc3c(c2)C=CC(C)(C)O3)c2ccccc2)cc1OC` [KCN1], the IC50 in test [2] is around 15 µM. Further, in the test on cell culture media, the “acidification of cell culture media” value is given as “strongly acidifies cell culture media”. The “toxicity to LN229 cells” value with LN229 cells was “toxic”.
